Data on four compounds can be found in ChEMBL document CHEMBL1143608, “Novel C-17-heteroaryl steroidal CYP17 inhibitors/antiandrogens: synthesis, in vitro biological activity, pharmacokinetics, and antitumor activity in the LAPC4 human prostate cancer xenograft model” (J Med Chem, 2005).

Data set [1] in a line: Elimination rate constant at 50 mg/kg upon subcutaneous administration was determined in mouse; n = 5. Type of data set: ADME, organism-based. Further details: dose 50 mg/kg, route subcutaneous. To be noted: in vivo, sc.
The nature of data set [2]: Maximum concentration at 50 mg/kg upon subcutaneous administration was determined in mouse; n = 5. More on the design: dose 50 mg/kg, route subcutaneous. Type of data set: ADME, organism-based. To be noted: in vivo, sc.
Data set [3] can be described thus: Volume of distribution at 50 mg/kg upon subcutaneous administration was determined in mouse; n = 5. The data set is classed as ADME, organism-based. Further details: dose 50 mg/kg, route subcutaneous. To be noted: in vivo, sc.
Data set [4] can be described thus: Time required for maximum concentration at 50 mg/kg upon subcutaneous administration was determined in mouse; n = 5. Type of data set: ADME, organism-based. Further details: dose 50 mg/kg, route subcutaneous. To be noted: in vivo, sc.
A short description of data set [5]: […] at 50 mg/kg upon subcutaneous administration was determined in mouse; n = 5. Type of data set: ADME, organism-based. Further details: dose 50 mg/kg, route subcutaneous. To be noted: in vivo, sc.
Data set [6] concerns the target T1, 3-oxo-5-alpha-steroid 4-dehydrogenase 2 (Homo sapiens, UniProt P31213).
T1 sequence (P31213 whole entry): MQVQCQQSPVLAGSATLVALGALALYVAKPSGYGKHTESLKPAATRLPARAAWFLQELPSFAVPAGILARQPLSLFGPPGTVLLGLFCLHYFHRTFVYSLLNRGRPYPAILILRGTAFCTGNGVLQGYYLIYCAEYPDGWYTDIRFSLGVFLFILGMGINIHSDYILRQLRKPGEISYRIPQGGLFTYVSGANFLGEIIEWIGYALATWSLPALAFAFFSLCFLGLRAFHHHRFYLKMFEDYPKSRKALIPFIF
Kind of data set: (§1) Inhibition of [1-beta-2beta-3H]- -testosterone binding to human steroid 5-alpha-reductase type 2 of BPH tissue at 10 uM. The data set is classed as functional.

Data set [7] in a line: Area under curve at 50 mg/kg upon subcutaneous administration was determined in mouse; n = 5. Type of data set: ADME, organism-based. More on the design: dose 50 mg/kg, route subcutaneous. The settings on record: in vivo, sc.
For data set [8], the target named is T2, 3-oxo-5-alpha-steroid 4-dehydrogenase 1 (Homo sapiens, UniProt P18405).
T2 sequence (P18405 whole entry): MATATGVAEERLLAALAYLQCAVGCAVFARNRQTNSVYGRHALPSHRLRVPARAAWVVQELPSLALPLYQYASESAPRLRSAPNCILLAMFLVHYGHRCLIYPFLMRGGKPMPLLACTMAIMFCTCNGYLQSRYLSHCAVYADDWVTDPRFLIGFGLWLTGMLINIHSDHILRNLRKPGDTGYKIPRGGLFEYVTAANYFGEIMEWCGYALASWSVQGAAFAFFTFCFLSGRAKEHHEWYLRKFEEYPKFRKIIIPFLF
Nature of the data set: Inhibition of [1-beta-3H]-androstenedione binding to human steroid 5-alpha-reductase type I expressed in DU-145 cells at 10 uM. The data set is classed as functional, cell-based.

The nature of data set [9]: Half life at 50 mg/kg upon subcutaneous administration was determined in mouse; n = 5. Type of data set: ADME, organism-based. Further details: dose 50 mg/kg, route subcutaneous. To be noted: in vivo, sc.
The nature of data set [10]: Time required for maximum concentration at 100 mg/kg upon subcutaneous administration was determined in mouse; n = 5. The data set is classed as ADME, organism-based. Further details: dose 100 mg/kg, route subcutaneous. The settings on record: in vivo, sc.
The nature of data set [11]: Volume of distribution at 100 mg/kg upon subcutaneous administration was determined in mouse; n = 5. Type of data set: ADME, organism-based. Further details: dose 100 mg/kg, route subcutaneous. The settings on record: in vivo, sc.
Data set [12] is described as follows: Area under curve at 100 mg/kg upon subcutaneous administration was determined in mouse; n = 5. Type of data set: ADME, organism-based. More on the design: dose 100 mg/kg, route subcutaneous. To be noted: in vivo, sc.
The target of data set [13] is T3, 3-oxo-5-alpha-steroid 4-dehydrogenase 1 (Homo sapiens) (UniProt P18405).
T3 sequence (whole entry): T2 sequence (P18405 whole entry)
Nature of the data set: Inhibition of human steroid 5-alpha-reductase type I expressed in DU-145 cells using [1-beta-3H]-androstenedione at a concentration of 10 uM. The data set is classed as functional, cell-based.

The target in data set [14] is T4, 3-oxo-5-alpha-steroid 4-dehydrogenase 2 (Homo sapiens) (UniProt P31213).
T4 sequence (whole entry): T1 sequence (P31213 whole entry)
Described as §1. The data set is classed as functional.

Data set [15] is described as follows: Half life at 100 mg/kg upon subcutaneous administration was determined in mouse; n = 5. The data set is classed as ADME, organism-based. Further details: dose 100 mg/kg, route subcutaneous. The settings on record: in vivo, sc.
Data set [16] in a line: Maximum concentration at 100 mg/kg upon subcutaneous administration was determined in mouse; n = 5. Type of data set: ADME, organism-based. More on the design: dose 100 mg/kg, route subcutaneous. The settings on record: in vivo, sc.
Data set [17] has as its target T3, 3-oxo-5-alpha-steroid 4-dehydrogenase 1 (Homo sapiens). Kind of data set: Inhibition of [1-beta-3H]-androstenedione binding to human steroid 5-alpha-reductase type I expressed in DU-145 cells at 10 uM; ni=no inhibition up to 10 uM. The data set is classed as functional, cell-based.

Broadly, the Cmax is the peak of the concentration-time curve. In general, Tmax refers to the time at which the peak concentration occurs. What is called MRT is the average time that molecules of a dose stay in the body. In general, IC50 refers to the concentration at which inhibition is half-maximal. A high value points to weaker potency. What is called AUC is concentration integrated over time. Usually half-life stands for the time in which the quantity being followed falls by half. Low values mean fast loss, high ones slow loss. A word on the inhibition: it is the share of the control response that was lost under treatment.

Regarding `C[C@]12CCC(=O)C=C1CCC1C2CC[C@]2(C)C(n3cnc4ccccc43)=CCC12` (some centres not stated), the k el in data set [1] was 0.000305 s⁻¹. Further, in data set [2], the peak level (Cmax) was 5150 ng/mL. In data set [3], this compound displayed a Vd of 4.207 L/kg. In addition, the Tmax in [4] is 60 min. Further, the mean residence time MRT in data set [5] is 80 min. For the same compound, the concentration for half-maximal inhibition (IC50) in [6] was found to be 0.48 µM; in [8], 0.77 µM. Besides, the AUC in data set [7] was 10800 ng·h/mL. Besides, the half-life in data set [9] amounted to 37.9 min.
As for `C[C@]12CC[C@H](O)CC1=CCC1C2CC[C@]2(C)C(n3cnc4ccccc43)=CCC12` (some centres not stated), the Tmax in data set [10] and in data set [4] was 30 min in each case. Further, the Vd in data set [11] was 3.27639 L/kg; in [3], 2.09899 L/kg. Also, the figures for the AUC in data set [12] and in data set [7] were 30200 ng·h/mL and 24000 ng·h/mL, respectively. The inhibition in data set [13] came out at 4%; in [14], 53%. In addition, the Kel in data set [1] is 0.942 h⁻¹. Also, the Cmax in data set [2] was found to be 16800 ng/mL; in data set [16] it was 32200 ng/mL. Besides, the T1/2 worked out at 36.6 min in data set [15] and 44.17 min in [9]. For the same compound, the MRT in data set [5] was 65.4 min.
Turning to `C[C@]12CC[C@H](O)CC1=CCC1C2CC[C@]2(C)C(n3nnc4ccccc43)=CCC12` (some centres not stated), the inhibition in [14] is 17%; in data set [17], “No inhibition”.
Consider `C[C@]12CCC(=O)C=C1CCC1C2CC[C@]2(C)C(n3nnc4ccccc43)=CCC12` (some centres not stated), for which the inhibition in data set [13] was 21%; in data set [14], 56%.
